In patent US7498343B2, “Mycobacterial inhibitors” (priority 2002, dated 2009):
Values after ≈ are worked out from the molar mass of the structure shown. Read-outs that look alike come from different tables or passages of the source.

Tests used:
[1] = tested on: Mycobacterium tuberculosis (strain H37RV); assay: In-vitro method for testing compounds against M. tuberculosis (resazurin growth inhibition, MIC); assay type: cell-based; conditions: MIC data representing IC90's, 7 days incubation, resazurin fluorescence
M. Smegmatis ATCC607 = assay: In-vitro method for testing compounds for anti-bacterial activity against strain M. smegmatis ATCC607 (Alamar Blue growth inhibition); assay type: cell-based; conditions: M. smegmatis ATCC607, pIC50 = -logIC50, IC50 in M, 50% inhibitory concentration for bacterial growth, 48 hours incubation; for IC50: Mycolicibacterium smegmatis, ATCC607, 48 h, read-out: pIC50 (converted)
Outline: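 About 250 CFU/well M. smegmatis ATCC607 in Mueller-Hinton broth exposed to five-fold serial compound dilutions, 48 h at 37 °C, humidified 5% CO2. Growth read by Alamar Blue fluorescence (ex 530/em 590 nm) after 2 h further incubation; % growth inhibition calculated.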

[2] = Mycobacterium tuberculosis, H37RV, 168 h, read-out: MIC

## COc1nc2ccc(Br)cc2cc1C(c1ccc(C)cc1)C(O)(CCN(C)C)c1cccc2ccccc12 (stereo not drawn) [Compound 71]
[1]
  MIC: 0.14 microgram/ml
M. Smegmatis ATCC607
  pIC50: 8.5
other
  melting point: 174 °C

## COc1nc2ccc(Br)cc2cc1C(c1ccccc1)C(O)(CC[N+](C)(C)C)c1ccccc1.[I-] (stereo not drawn) [Compound 10]
[1]; [2]
  MIC: 10.3 µg/mL
M. Smegmatis ATCC607
  IC50: 2.51 µM
other
  melting point: 198 °C

## COc1nc2ccc(Br)cc2cc1C(c1ccccc1)C(O)(CCN(C)C)c1cccc(F)c1F (stereo not drawn) [Compound 113]
[1]
  MIC: 0.27 microgram/ml
M. Smegmatis ATCC607
  pIC50: 8.6
other
  melting point: 185 °C

## CN(C)CCC(O)(c1ccccc1)C(c1ccccc1)c1cnc2ccc(Br)cc2c1 (stereo not drawn) [Compound 8]
[1]; [2]
  MIC: 23.8 µg/mL (≈ 50.1 µM)
M. Smegmatis ATCC607
  pIC50: 5.7
other
  melting point: 180 °C

## COc1nc2ccc(Br)cc2cc1C(c1ccccc1)C(O)(CCN)c1ccccc1 (stereo not drawn) [Compound 9]
[1]
  MIC: 37.92 microgram/ml
M. Smegmatis ATCC607
  pIC50: 4.5
other
  melting point: 204 °C

## COc1nc2ccc(Br)cc2cc1C(c1ccc(C)cc1)C(O)(CCN(C)C)c1cccc2ccccc12 (stereo not drawn) [Compound 72]
[1]
  MIC: 3.59 microgram/ml
M. Smegmatis ATCC607
  pIC50: 6.9
other
  melting point: 178 °C

## COc1nc2ccc(Br)cc2cc1C(c1ccccc1)C(O)(CCN(C)C)c1cccc(F)c1F (stereo not drawn) [Compound 114]
[1]
  MIC: 43.01 microgram/ml
M. Smegmatis ATCC607
  pIC50: 5.9
other
  melting point: 210 °C

## COc1nc2ccc(Br)cc2cc1C(c1ccccc1)C(O)(CC[N+](C)(C)[O-])c1ccccc1 (stereo not drawn) [Compound 11]
[1]; [2]
  MIC: 41.4 µg/mL (≈ 79.4 µM)
M. Smegmatis ATCC607
  IC50: 25.1 µM
other
  melting point: 208 °C
